Starred links: 1 amine or outer side, 2 acyl side, 3 side chain; linkers in the order of their positions; H or OH if unused. Residues, ends and D or L forms follow the SMILES beside them. Groups on a side chain read outwards from the residue. *: point of attachment. C18 diacid = O=C(O)CCCCCCCCCCCCCCCCC(=O)*; γGlu = O=C(O)[C@H](CCC(=O)[*:2])N[*:1]
System: Sprague Dawley (SD) rats
Test: Acute food intake in ad libitum fed rat model
Assay type: in vivo
Details: single s.c. administration, negative value = reduced food intake
Description: Lyophilised compound was dissolved in vehicle, 8 mM phosphate, 250 mM glycerol, 0.007% polysorbate 20, and pH was adjusted to 7.4 with 1N NaOH.
Normal weight Sprague Dawley (SD) rats from Taconic Europe, Denmark, were used for the acute food intake studies. The purpose of these studies was to test in vivo effect on food intake and to provide an indication of the compounds' duration of action. Experiments were conducted with permission from the Danish Animal Experiments Inspectorate and were performed in accordance with the guidelines of the Danish legislation governing animal experimentation (1987) as well as the National Institutes of Health (publication number 85-23) and the European Convention for the Protection of Vertebrate Animals used for Experimental and other Scientific Purposes (Council of Europe No 123, Strasbourg 1985).
Prior to study start, rats were acclimatized to the experimental settings for 14 days. During this period, the animals were handled at least 2 times. Immediately upon arrival, rats were put on a reversed light cycle (dark from 10 am-10 pm or 11 am-11 pm) and were transferred into one of three following food intake measuring systems: FeedWin, BioDaq or HM2. Rats were single housed in the FeedWin and BioDaq system and were housed three a cage in the HM2 system (rats were in this case ID-chipped). During the acclimatization period, in which the rats get used to the new light cycle and diet, the animals had free access to food and water. […] Each amylin analogue was tested in a group of 5-6 rats. A vehicle group of 5-6 rats was included in each experiment and were used as reference point. […] The time of dosing was recorded for each rat.
After dosing, rats were returned to their home cages, where they had access to food and water. Food consumption was recorded individually and continuously by on-line registration for up to 72 h post dosing. At the end of the experiment, body weight was measured again, and animals were euthanized by CO2 overdose.

`CC[C@H](C)[C@H](NC(=O)[C@H](CCCCNC(=O)CC[C@H](NC(=O)CCCCCCCCCCCCCCCCC(=O)O)C(=O)O)NC(=O)CNC(=O)[C@H](Cc1ccccc1)NC(=O)[C@H](CC(N)=O)NC(=O)[C@H](CC(=O)O)NC(=O)[C@H](CO)NC(=O)[C@H](CO)NC(=O)[C@H](Cc1c[nH]cn1)NC(=O)[C@H](Cc1c[nH]cn1)NC(=O)[C@H](CC(C)C)NC(=O)[C@H](Cc1ccccc1)NC(=O)[C@H](CCC(=O)O)NC(=O)[C@H](C)NC(=O)[C@H](CC(C)C)NC(=O)[C@H](CCCNC(=N)N)NC(=O)[C@H](C)NC(=O)[C@@H](NC(=O)[C@H](CCC(N)=O)NC(=O)[C@H](C)NC(=O)[C@@H](NC(=O)[C@H](CO)NC(=O)[C@H](CC(C)C)NC(=O)[C@H](Cc1c[nH]cn1)NC(=O)[C@H](CO)NC(=O)[C@H](C)NC(C)=O)[C@@H](C)O)[C@@H](C)O)C(=O)N[C@@H](CC(C)C)C(=O)N1CCC[C@H]1C(=O)N1CCC[C@H]1C(=O)N[C@H](C(=O)N[C@@H](CC(=O)O)C(=O)N[C@H](C(=O)NCC(=O)N[C@@H](CO)C(=O)N[C@@H](CC(N)=O)C(=O)N[C@H](C(=O)N1CCC[C@H]1C(N)=O)[C@@H](C)O)C(C)C)[C@@H](C)O` [Compound 41, N^1-acetyl,N{Epsilon-25}-[(4S)-4-carboxy-4-(17-carboxyheptadecanoylamino)butanoyl]-[Ala1,Ser2,His3,Leu4,Ser5,Ala7,Gln8,Ala10,Glu14,His17,Asp21,Lys25,Pro28,Pro29,Asp31,Pro37]-human amylin] (Ac-ASHLSTAQTARLAEFLHHSSDNFGK([γGlu-C18 diacid])ILPPTDVGSNTP-NH2) was tested, and the “Food intake relative to vehicle (%) 0-24 hr, 3 nmol/kg” value (0-24 hr) was −88%, the “Food intake relative to vehicle (%) 24-48 hr, 3 nmol/kg” value (24-48 hr) was −76% and the “Food intake relative to vehicle (%) 48-72 hr, 3 nmol/kg” value (48-72 hr) was −15%.
